Consider six compounds from patent publication US20230165766A1, “DISPERSANT OR DISPERSION MEDIA COMPOSITION COMPRISING 2,3-BUTANEDIOL, AND COSMETIC COMPOSITION COMPRISING SAME” (GS CALTEX CORPORATION, priority 2020, published 2023).

Structures are written as SMILES.

The conditions of data set [1]: cited from earlier work.
The nature of data set [2]: Ceramide dispersion force in solubilized skin formulation. The data set is classed as physicochemical. On the procedure: (§1) Ceramide is an oil-soluble substance that is not soluble in water, precipitates easily during cosmetic production. It is difficult to stabilize ceramide due to gelling during the cosmetic production. In accordance with the present disclosure, the dispersion forces based on types of polyols were compared with each other using the characteristics of ceramide that precipitation thereof occurs well. The stability was evaluated at each of the room temperature, the refrigeration temperature, and the thermostat (45° C.).
0.02 parts by weight of EDTA-2Na and 2 parts by weight of 1,2-hexanediol were added to 100 parts by weight of purified water to prepare a water-based mixed solution 1. On the other hand, 0.1 parts by weight of fragrance, 0.3 parts by weight of PEG-60 hydrogenated castor oil, and 5 parts by weight of DPG (Dipropylene Glycol) were mixed with each other to produce a solubilized mixed solution. Further, a water-based mixed solution 2 was prepared by mixing 10 parts by weight of polyol of Present Example 6 and 1 part by weight of ceramide with each other.
The water-based mixed solution 1 was stirred at room temperature for 2 minutes. On the other hand, the solubilized mixed solution was heated to 45 to 50° C. while stirring the same to make the same transparent, and then was slowly added to the water-based mixed solution under a stirring operation. […]

Data set [3] in a line: Allantoin dispersion force evaluation (precipitation amount in water). The class given is physicochemical. From the text: Precipitation of allantoin occurs well when the temperature is low. When allantoin is precipitated during cosmetic production, it is problematic. In accordance with the present disclosure, using the property of allantoin whose precipitation occurs well, the dispersion force was identified in a short time by measuring an amount of precipitation of allantoin based on each of the polyols under a severe refrigeration condition when the temperature is low, and then the dispersion forces of the various polyols were compared with each other. The stability was evaluated at each of a room temperature, a refrigeration temperature, and thermostat (45° C.). […] In this experiment, the dispersion force of allantoin, that is, the precipitation amount, and a precipitation rate thereof, based on each of the polyols was evaluated. […] The amount of precipitation of allantoin was measured as follows. […] After the 24 hours or 7 days, a supernatant was removed therefrom, and the resulting mixture was dried in a thermostat to entirely remove any remaining supernatant, leaving only the precipitated portion. Then, the precipitated portion was dried for 12 hours, and then a weight thereof was measured. Thus, the amount of precipitation was derived as a difference value between the measured weight and the previously measured weight of the empty container.

A short description of data set [4]: Dispersion force of allantoin in solubilized formulation. The class given is physicochemical. On the procedure: 0.02 parts by weight of EDTA-2Na, 2 parts by weight of 1,2-hexanediol, and 0.5 parts by weight of allantoin were added to 100 parts by weight of purified water to prepare a water-based mixed solution. On the other hand, 0.1 parts by weight of fragrance, 0.3 parts by weight of PEG-60 hydrogenated castor oil, 5 parts by weight of 95% ethanol and 10 parts by weight of the polyol of Present Example 2 were mixed with each other to prepare a solubilized mixed solution. That is, the water-based mixed solution is composed of ultrapure water, EDTA-2Na, 1,2-hexanediol and allantoin, while the solubilized mixed solution is composed of fragrance, PEG-60 hydrogenated castor oil, ethanol and polyol.
The water-based mixed solution was stirred at room temperature for 3 minutes. On the other hand, the solubilized mixed solution was stirred was heating the same to 45 to 50° C. to make the same transparent. Then, the solubilized mixed solution was slowly added to the water-based mixed solution to prepare a mixture which in turn was stirred at room temperature for 2 minutes.
The amount of precipitation of allantoin was measured as follows. […] Then, the precipitated portion was dried for 12 hours, and then a weight thereof was measured. Thus, the amount of precipitation was derived as a difference value between the measured weight and the previously measured weight of the empty container.

Data set [5] can be described thus: Ceramide dispersion force in solubilized essence formulation and O/W emulsion formulation. The class given is physicochemical. As for the experimental part:
Further, an experiment for evaluating the dispersion force of ceramide was performed by applying the same to each of the solubilized essence formulation and the O/W emulsion formulation.

A short description of data set [6]: Dispersibility of vitamin C in P/O emulsion under heating condition. The data set is classed as physicochemical. To be noted: vitamin C-containing formulations. As for the experimental part: Vitamin C is a water-soluble substance that dissolves well in water. […] Therefore, in this experiment, vitamin C was applied to a polyol in oil (P/O) formulation as an anhydrous formulation, and an ivory-colored cream was prepared to evaluate dispersibility. It is more important to produce a stable cosmetic without discoloration, odor change, or phase separation rather than the problem of precipitation regarding vitamin C. Thus, factors for evaluating the dispersing power were set as soft spreadability, application uniformity, and emulsion stability. 1 part by weight of […] JC 500B, 1.5 parts by weight of ABIL EM 90, and 2 parts by weight of KF 6017 were added to 100 parts by weight of ELASTOMER BASE to produce an oil-based mixed solution 1. […] Further. 15 parts by weight of ascorbic acid ultra-fine powder was used to prepare a water-based mixed solution 2. Further, 45 parts by weight of KSG-16 was used to prepare an oil-based mixed solution 2. The oil-based mixed solution 1 was heated to 80 to 90° C. while stirring the same. […] The dispersion stability was evaluated as follows: unstable: phase separation between the oil phase and the aqueous phase, discoloration and/or odor change, normal: the oil phase being slightly separated, and stable: no oil phase separation.

Data set [7] in a line: Ceramide dispersion force evaluation (ceramide in polyol). The data set is classed as physicochemical. On the procedure: as §1

Consider `NC(=O)NC1NC(=O)NC1=O` (stereo not drawn) [allantoin], for which the solubility of allantoin in data set [1] is on record as 0.5 g/100 mL.
`C[C@H](O)[C@@H](C)O` [Present Example 6, (2R,3S)-2,3butanediol]: the “ceramide dispersion force” value in data set [2] is “ceramide was stably dispersed”.
With `C[C@H](O)[C@@H](C)O` [Present Example 1, (2R,3S)-2,3butanediol], the “dispersion force for allantoin” value in data set [3] is given as “excellent”.
In the case of `C[C@H](O)[C@@H](C)O` [Present Example 2, (2R,3S)-2,3butanediol], the “allantoin dispersion force in the solubilized formulation” value in data set [4] was “excellent”.
Turning to `C[C@H](O)[C@@H](C)O` [(2R,3S)-2,3-butanediol], in data set [5], the “dispersion force of ceramide” value was “the dispersion force was excellent” and the gelling phenomenon entry was “no gelling phenomenon was observed”. Further, in data set [6], the “difference between the properties under the heating/non-heating conditions” value was “no significant difference”.
On to `C[C@H](O)[C@@H](C)O` [Present Example 5, (2R,3S)-2,3butanediol], for which the “ceramide dispersion force” value in data set [7] (1 part ceramide in 100 parts polyol) was “ceramide was stably dispersed”. Also, the “state after 4 weeks in thermostat” value in data set [7] (thermostat (45° C.), 4 weeks) is “excellent dispersing power”.
